Results taken from patent US20080171783A1, “COMPOSITIONS AND METHODS FOR TREATING HYPERPROLIFERATIVE DISEASE” (Migenix Inc., priority 2006, published 2008).

How the values were obtained:
THP-1 = assay: Cell viability by XTT
Procedure: (§1) Compounds were solubilized at […] in DMSO and were stored at −20° C. Test compounds were initially tested at a single concentration of 10 μM and a subset of test compounds were further tested in selected cell lines using a six concentration dose response curve.
(§2) Cell Preparation Cancer cell lines were passaged in T-75 flasks prior to use in the assay in cell culture medium recommended by the ATCC (American Type Culture Collection; Table 6). On the day preceding the assay, the cells were split 1:2 to assure they were in an exponential growth phase at the time of compound treatment. Total cell and viability quantification was performed using a hemocytometer and Trypan Blue dye exclusion. […] The cells were resuspended at the appropriate cell per mL (Table 6) in tissue culture medium and added to the microtitre plates in a volume of 100 μL. Colon cell lines were incubated overnight at 37° C./5% CO2 to allow for cell adherence to the plates.
(§3) Plate Format: Each plate contains cell control wells (cells only), drug calorimetric control wells (drug only) as well as experimental wells (drug plus cells). Samples were tested in triplicate at a concentration of 10 μM and five half-logarithmic dilutions.
(§4) Cell Viability by XTT: Following incubation at 37° C. in a 5% CO2 incubator for four days, the test plates were stained with the tetrazolium dye XTT (2,3-bis(2-methoxy-4-nitro-5-sulfophenyl)-5-[(phenylamino)carbonyl]-2H-tetrazolium hydroxide). XTT-tetrazolium was metabolized by the mitochondrial enzymes of metabolically active cells to a soluble formazan product. XTT solution was prepared daily as a stock of 1 mg/mL in RPMI1640. Phenazine methosulfate (PMS) solution was prepared at 0.15 mg/mL in phosphate buffered saline (PBS) and stored in the dark at −20° C. XTT/PMS stock was prepared immediately before use by adding 40 μL of PMS per mL of XTT solution. Fifty (50) microlitres of XTT/PMS was added to each well of the plate and the plate was reincubated for 4 hours at 37° C. Plates were sealed with adhesive plate sealers and shaken gently or inverted several times to mix the soluble formazan product and the plate was read spectrophotometrically at 450/650 nm with a Molecular Devices Vmax plate reader. […] An Average Response Factor (ARF) was calculated for each compound by averaging the ten Percentage of Control values for the cell lines. […] Deviations below 100% control indicate activity. The concentration of each tested compound is 10 μM.

Caco-2 = assay: Cell viability by XTT
Procedure: as §1, §2, §3, §4

Jurkat = assay: Cell viability by XTT
Procedure: as §1, §2, §3, §4

HL-60(TB) = assay: NCI In Vitro Cell Line Screening (SRB); assay type: cell-based, human; conditions: Leukemia, 48 h; for GI50: Homo sapiens
HT29 = assay: cells
Procedure: as §1, §2, §3, §4

HL-60 = assay: Cell viability by XTT; assay type: cell-based; conditions: HL-60, single dose 10 μM, four days
Procedure: as §1, §2, §3, §4

HCT-15 = assay: Cell viability by XTT; assay type: cell-based; conditions: HCT-15, single dose 10 μM, four days
Procedure: as §1, §2, §3, §4

SF-539 = assay: NCI In Vitro Cell Line Screening (SRB); assay type: cell-based, human; conditions: SF-539, CNS Cancer, 48 h; for GI50 / CC50: Homo sapiens; for CC50: read-out: LC50 (the source's name)
MDA-MB-435 = assay: NCI In Vitro Cell Line Screening (SRB); assay type: cell-based, human; conditions: MDA-MB-435, Breast Cancer, 48 h; for GI50 / CC50: Homo sapiens; for CC50: read-out: LC50 (the source's name)
NCI-H322M = assay: NCI In Vitro Cell Line Screening (SRB); assay type: cell-based, human; conditions: Non-Small Cell Lung Cancer, 48 h; for GI50 / CC50: Homo sapiens; for CC50: read-out: LC50 (the source's name)
SN12C = assay: NCI In Vitro Cell Line Screening (SRB); assay type: cell-based, human; conditions: Renal Cancer, 48 h; for GI50 / CC50: Homo sapiens; for CC50: read-out: LC50 (the source's name)
CAKI-1 = assay: NCI In Vitro Cell Line Screening (SRB); assay type: cell-based, human; conditions: CAKI-1, Renal Cancer, 48 h; for GI50 / CC50: Homo sapiens; for CC50: read-out: LC50 (the source's name)
UACC-257 = assay: NCI In Vitro Cell Line Screening (SRB); assay type: cell-based, human; conditions: UACC-257, Melanoma, 48 h

Compound | GI50 (HL-60(TB)) | TGI (HL-60(TB)) | GI50 (SF-539) | CC50 (SF-539) | TGI (SF-539) | GI50 (MDA-MB-435) | CC50 (MDA-MB-435) | TGI (MDA-MB-435) | GI50 (NCI-H322M) | CC50 (NCI-H322M) | TGI (NCI-H322M) | GI50 (SN12C) | CC50 (SN12C) | TGI (SN12C) | TGI (CAKI-1) | GI50 (CAKI-1) | CC50 (CAKI-1) | also measured
CC(C)(C)c1ccc(NC(=O)[C@H](CCCCN)NC(=O)OCC2c3ccccc3-c3ccccc32)cc1 [Compound 105, (S)-[5-AMINO-1-(4-TERT-BUTYL-PHENYLCARBAMOYL)-PENTYL]-CARBAMIC ACID 9H-FLUOREN-9-YLMETHYL ESTER] | 1.54 µM | 3.47 µM | 1.48 µM | 5.63 µM | 2.89 µM | 4.27 µM | 87.1 µM | 21.7 µM | 13.5 µM | 69.9 µM | 30.7 µM | 13.8 µM | 62.9 µM | 29.5 µM | 43.9 µM | 19.8 µM | 97.2 µM | CC50 (THP-1; Homo sapiens, THP-1, read-out: Activity (TC50)): 6.7 µM; Percentage of Cell Control (THP-1; THP-1, single dose 10 μM, four days): 0%; Percentage of Cell Control (Caco-2; Caco-2, single dose 10 μM, four days): 0%; CC50 (Caco-2; Homo sapiens, Caco-2, read-out: Activity (TC50)): 8.6 µM; CC50 (Jurkat; Homo sapiens, read-out: Activity (TC50)): 2.5 µM; Percentage of Cell Control (Jurkat; single dose 10 μM, four days): 23.5%; Percentage of Cell Control (HT29; HT29, single dose 10 μM, four days): 13.8%; CC50 (HT29; Homo sapiens, HT-29, read-out: Activity (TC50)): 8.5 µM; Percentage of Cell Control (HL-60): 19.6%; Percentage of Cell Control (HCT-15): 85.6%; GI50 (UACC-257; Homo sapiens): 1.75 µM; TGI (UACC-257): 3.70 µM
Cc1ccc(NC(=O)[C@@H](CCCCN)NC(=O)Nc2ccc3c(c2)Cc2ccccc2-3)cc1 [Compound 173, (R)-6-AMINO-2-[3-(9H-FLUOREN-2-YL)-UREIDO]-HEXANOIC ACID P-TOLYLAMIDE] | 1.77 µM | 3.79 µM | 1.92 µM | 11.9 µM | 4.48 µM | 1.98 µM | 24.3 µM | 6.21 µM | 2.54 µM | 39.8 µM | 12.0 µM | 1.17 µM | 5 µM | 2.41 µM | 34.0 µM | 0.135 µM | > 100 µM | 
